This is an account of results in US12673924B2, “Valiolamine derivatives as glucosidase inhibitors” (Emergent Product Development Gaithersburg Inc., priority 2021, dated 2026).

pIC50: −log10 of the molar value.

What all share (type): biochemical
The target of one experiment is T1, recombinant human GBA (Homo sapiens, UniProt P04062).
T1 construct: purchased
T1 sequence (P04062 40-536): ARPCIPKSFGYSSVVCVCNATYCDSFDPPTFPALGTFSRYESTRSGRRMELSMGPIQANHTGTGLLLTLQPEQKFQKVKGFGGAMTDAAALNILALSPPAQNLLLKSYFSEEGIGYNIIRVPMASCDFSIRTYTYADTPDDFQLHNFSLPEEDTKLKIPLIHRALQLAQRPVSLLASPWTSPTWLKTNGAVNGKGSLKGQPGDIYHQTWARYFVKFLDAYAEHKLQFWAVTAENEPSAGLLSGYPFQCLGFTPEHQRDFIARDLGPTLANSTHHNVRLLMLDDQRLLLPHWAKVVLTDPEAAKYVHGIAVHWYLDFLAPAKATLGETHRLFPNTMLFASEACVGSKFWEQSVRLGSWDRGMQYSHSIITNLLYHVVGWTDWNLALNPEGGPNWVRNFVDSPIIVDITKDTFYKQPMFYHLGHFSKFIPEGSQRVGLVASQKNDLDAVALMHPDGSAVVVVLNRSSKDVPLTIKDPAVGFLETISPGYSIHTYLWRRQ
As to the kind of experiment: Beta-glucocerebrosidase (GBA) inhibition assay. Particulars: 4-methylumbelliferyl-beta-D-pyranoside substrate, 4-PL curve fit. On the procedure: Beta-glucocerebrosidase (GBA, also referred to glucosylceramidase): To analyze inhibitory effects of a test compound, commercially available recombinant human GBA was incubated with multiple dilutions of test compound for 60 minutes at 37° C. 4-methylumbelliferyl-beta-D-pyranoside was then introduced to the mixture as substrate. Following incubation for 60 minutes at 37° C., 1,4-methyllumbelliferone was generated, and the reaction was stopped with the stop solution (0.5 M glycine; 0.3 M NaOH, pH 10). 1,4-methyllumbelliferone was detected by fluorescence (excitation at 365 nm, emission at 440 nm). Relative fluorescence is compared to untreated enzymatic activity and test compound concentration is then plotted as a function of percent inhibition. The IC50 was determined using a 4-PL curve fit as the measure of relative inhibitory activity of each test compound (see Table 4).

The next experiment addresses T2, rat sucrase (Rattus norvegicus, UniProt P23739).
T2 construct: partially purified alpha-glucosidase from intestinal rat powder; from tissue; host or cells: rat intestinal powder
As to the kind of experiment: Intestinal alpha-glucosidase assay, sucrose substrate. Particulars: alpha-glucosidase from intestinal rat powder. On the procedure:
(§1) Intestinal alpha-glucosidases (rat maltase and sucrase): Intestinal alpha-glucosidases act upon 1,4-alpha-glucoside bonds, breaking down disaccharides to glucose. To perform this assay, partially purified alpha-glucosidase from intestinal rat powder was incubated for 60 minutes at 37° C. with multiple dilutions of test compounds. Maltose or Sucrose respectively was then introduced as substrate to the mixture and incubated for 30 minutes at 37° C. The reaction was stopped by a 5-minute incubation at 90° C. and the resultant glucose production is detected using Sigma's Glucose GO Kit. Percent inhibition was then plotted as a function of concentration for each test compound. The IC50 was determined using a 4-PL curve fit and serves as the measure of relative inhibition of each test compound (see Table 4). Table 4 summarizes the results of IC50s for each molecule against each tested glucosidase enzyme.

For a further experiment, the target named is rat maltase. As to the kind of experiment: Intestinal alpha-glucosidase assay, maltose substrate. Particulars: alpha-glucosidase from intestinal rat powder. On the procedure: as §1

T2 sequence (P23739 whole entry): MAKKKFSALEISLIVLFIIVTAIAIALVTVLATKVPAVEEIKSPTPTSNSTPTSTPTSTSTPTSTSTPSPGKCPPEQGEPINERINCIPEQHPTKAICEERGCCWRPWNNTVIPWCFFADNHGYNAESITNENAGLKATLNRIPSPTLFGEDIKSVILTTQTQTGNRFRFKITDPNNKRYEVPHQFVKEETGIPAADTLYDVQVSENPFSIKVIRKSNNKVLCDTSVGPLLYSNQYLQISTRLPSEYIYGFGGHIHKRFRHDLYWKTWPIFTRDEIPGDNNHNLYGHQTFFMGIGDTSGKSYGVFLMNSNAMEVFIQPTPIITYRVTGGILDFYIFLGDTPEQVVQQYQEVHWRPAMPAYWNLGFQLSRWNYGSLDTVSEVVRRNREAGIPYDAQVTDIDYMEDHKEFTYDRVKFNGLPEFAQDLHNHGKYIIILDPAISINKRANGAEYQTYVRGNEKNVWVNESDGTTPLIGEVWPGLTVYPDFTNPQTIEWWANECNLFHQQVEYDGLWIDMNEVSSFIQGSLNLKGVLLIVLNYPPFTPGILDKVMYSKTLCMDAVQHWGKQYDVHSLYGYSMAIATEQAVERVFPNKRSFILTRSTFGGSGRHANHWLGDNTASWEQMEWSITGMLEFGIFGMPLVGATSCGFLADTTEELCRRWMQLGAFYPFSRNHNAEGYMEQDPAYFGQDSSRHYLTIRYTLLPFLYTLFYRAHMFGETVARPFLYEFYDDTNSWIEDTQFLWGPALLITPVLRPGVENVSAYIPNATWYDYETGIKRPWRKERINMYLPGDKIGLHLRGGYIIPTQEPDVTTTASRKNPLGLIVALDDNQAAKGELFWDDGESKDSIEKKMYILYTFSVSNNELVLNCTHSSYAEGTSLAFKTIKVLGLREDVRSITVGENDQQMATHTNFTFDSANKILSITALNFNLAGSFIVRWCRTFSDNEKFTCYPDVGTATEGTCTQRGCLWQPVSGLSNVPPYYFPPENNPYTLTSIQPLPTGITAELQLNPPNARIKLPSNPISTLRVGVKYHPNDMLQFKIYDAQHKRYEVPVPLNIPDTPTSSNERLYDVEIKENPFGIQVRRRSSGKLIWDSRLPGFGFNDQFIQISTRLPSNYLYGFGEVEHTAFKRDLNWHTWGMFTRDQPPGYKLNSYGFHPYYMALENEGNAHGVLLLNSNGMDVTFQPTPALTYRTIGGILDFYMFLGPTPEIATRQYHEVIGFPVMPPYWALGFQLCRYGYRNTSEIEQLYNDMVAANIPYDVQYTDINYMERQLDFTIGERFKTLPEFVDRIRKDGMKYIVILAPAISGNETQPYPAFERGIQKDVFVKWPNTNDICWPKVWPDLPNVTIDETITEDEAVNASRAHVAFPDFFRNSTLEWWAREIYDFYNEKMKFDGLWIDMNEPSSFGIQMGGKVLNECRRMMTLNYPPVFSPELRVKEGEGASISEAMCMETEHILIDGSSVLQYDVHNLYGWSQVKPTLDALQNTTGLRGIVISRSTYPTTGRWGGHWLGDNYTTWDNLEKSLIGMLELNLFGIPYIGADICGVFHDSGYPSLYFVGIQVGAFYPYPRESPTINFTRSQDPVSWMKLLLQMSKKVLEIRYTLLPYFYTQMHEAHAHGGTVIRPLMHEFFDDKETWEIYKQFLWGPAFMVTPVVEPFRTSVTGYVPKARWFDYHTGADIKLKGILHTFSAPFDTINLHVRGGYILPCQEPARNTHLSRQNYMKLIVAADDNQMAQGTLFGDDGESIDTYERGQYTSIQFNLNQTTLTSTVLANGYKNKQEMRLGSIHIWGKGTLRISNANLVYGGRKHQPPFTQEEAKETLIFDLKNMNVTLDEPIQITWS

Usually pIC50 stands for the IC50 on a negative log10 scale, so that one unit is a factor of ten. As to `CCCCN[C@H]1C[C@](O)(CO)[C@@H](O)[C@H](O)[C@H]1O` [Compound 1, (1S,2S,3R,4S,5S)-5-(butylamino)-1-(hydroxymethyl)cyclohexane-1,2,3,4-tetraol], the pIC50 at recombinant human GBA is under 3.00; against rat sucrase, 7.15; against rat maltase, 5.83.
